Reference: BindingDB's records for patent US10010539 (Merck Sharp & Dohme, 2018)

Target: T1, Orexin receptor type 2 (Homo sapiens, UniProt O43614)
T1 sequence (O43614 whole entry): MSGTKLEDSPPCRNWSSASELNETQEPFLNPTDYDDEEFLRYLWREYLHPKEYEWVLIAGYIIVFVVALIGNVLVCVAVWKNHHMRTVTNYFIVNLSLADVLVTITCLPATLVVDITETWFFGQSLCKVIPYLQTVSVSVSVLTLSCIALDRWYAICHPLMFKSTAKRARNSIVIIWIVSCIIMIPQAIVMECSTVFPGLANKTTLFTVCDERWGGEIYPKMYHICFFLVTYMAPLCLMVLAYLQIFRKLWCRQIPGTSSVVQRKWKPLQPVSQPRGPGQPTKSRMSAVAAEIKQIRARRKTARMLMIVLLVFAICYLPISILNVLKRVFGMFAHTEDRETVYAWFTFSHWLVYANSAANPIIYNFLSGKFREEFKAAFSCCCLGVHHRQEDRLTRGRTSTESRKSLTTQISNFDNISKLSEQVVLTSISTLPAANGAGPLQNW
Test: FLIPR Ca2+ Flux Assay
Procedure: For intracellular calcium measurements, Chinese hamster ovary (CHO) cells expressing the rat orexin-1 receptor or the human orexin-2 receptor, are grown in Iscove's modified DMEM containing 2 mM L-glutamine, […], 1% hypoxanthine-thymidine supplement, 100 U/ml penicillin, 100 μg/ml streptomycin and 10% heat-inactivated fetal calf serum (FCS). The cells are seeded at 20,000 cells/well into Becton-Dickinson black 384-well clear bottom sterile plates coated with poly-D-lysine. All reagents were from GIBCO-Invitrogen Corp. The seeded plates are incubated overnight at 37° C. and 5% CO2. Ala-6,12 human orexin-A as the agonist is prepared as a 1 mM stock solution in 1% bovine serum albumin (BSA) and diluted in assay buffer (HBSS containing 20 mM HEPES, 0.1% BSA and 2.5 mM probenecid, pH7.4) for use in the assay at a final concentration of 70 pM. […] Within the Fluorescent Imaging Plate Reader (FLIPR, Molecular Devices), test compounds are added to the plate in a volume of 25 μl, incubated for 5 min and finally 25 μl of agonist is added. Fluorescence is measured for each well at 1 second intervals for 5 minutes and the height of each fluorescence peak is compared to the height of the fluorescence peak induced by 70 pM Ala-6,12 orexin-A with buffer in place of antagonist.

SMILES	IC50 [nM]
CCOc1ccccc1C(=O)N1C[C@H](n2ncc(C(C)(C)O)n2)CC[C@H]1C [US10010539, 12]	31.3
CC(C)Oc1ncccc1C(=O)N1C[C@H](n2ncc(C(C)(C)O)n2)CC[C@H]1C [US10010539, 15]	32.6
